Laboratory results published in ChEMBL document CHEMBL1136415, “3-Acylamino-azetidin-2-one as a novel class of cysteine proteases inhibitors” (Bioorg Med Chem Lett, 2003).
Each block holds one compound with its values, some of them ahead of it.

What was measured:
Procathepsin L = Procathepsin L (Homo sapiens, UniProt P07711); test: Inhibition of recombinant human Cathepsin L
Cathepsin B = Cathepsin B (Rattus norvegicus, UniProt P00787); test: Inhibition of recombinant rat Cathepsin B
Neutrophil elastase = biological target: T1, Neutrophil elastase (Homo sapiens, UniProt P08246); test: Inhibition of human leukocyte elastase(HLE)
T1 sequence (P08246 whole entry): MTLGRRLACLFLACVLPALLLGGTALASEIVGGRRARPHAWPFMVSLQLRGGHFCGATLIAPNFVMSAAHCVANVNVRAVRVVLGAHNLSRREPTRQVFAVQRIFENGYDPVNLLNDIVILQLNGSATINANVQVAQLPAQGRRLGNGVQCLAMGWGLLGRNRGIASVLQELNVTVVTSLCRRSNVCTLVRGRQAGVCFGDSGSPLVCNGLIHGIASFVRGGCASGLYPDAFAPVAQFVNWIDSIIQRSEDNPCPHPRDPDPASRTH

Cathepsin K = biological target: T2, Cathepsin K (Homo sapiens, UniProt P43235); test: Inhibition of recombinant human Cathepsin K
T2 sequence (P43235 whole entry): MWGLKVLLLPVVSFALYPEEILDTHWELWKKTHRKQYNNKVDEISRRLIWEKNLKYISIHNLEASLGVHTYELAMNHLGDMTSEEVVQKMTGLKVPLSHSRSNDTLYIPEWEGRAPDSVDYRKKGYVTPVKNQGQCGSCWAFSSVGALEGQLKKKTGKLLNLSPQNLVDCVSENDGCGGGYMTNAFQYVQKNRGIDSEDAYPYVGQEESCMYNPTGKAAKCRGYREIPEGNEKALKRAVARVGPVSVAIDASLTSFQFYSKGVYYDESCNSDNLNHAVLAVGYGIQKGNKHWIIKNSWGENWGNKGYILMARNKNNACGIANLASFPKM

Cathepsin S = Cathepsin S (Homo sapiens, UniProt P25774); test: Inhibition of recombinant human cathepsin S
Sequence of Cathepsin S (P25774 whole entry): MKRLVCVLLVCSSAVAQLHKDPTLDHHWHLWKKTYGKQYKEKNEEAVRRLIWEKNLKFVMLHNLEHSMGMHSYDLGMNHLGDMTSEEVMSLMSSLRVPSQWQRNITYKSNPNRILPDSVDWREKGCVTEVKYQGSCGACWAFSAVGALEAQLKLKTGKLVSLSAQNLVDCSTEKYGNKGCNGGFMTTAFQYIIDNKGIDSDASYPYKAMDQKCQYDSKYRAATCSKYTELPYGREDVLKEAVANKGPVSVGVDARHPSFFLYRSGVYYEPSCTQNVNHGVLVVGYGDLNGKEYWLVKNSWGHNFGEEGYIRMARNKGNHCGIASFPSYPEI

Sequence of Procathepsin L (P07711 whole entry): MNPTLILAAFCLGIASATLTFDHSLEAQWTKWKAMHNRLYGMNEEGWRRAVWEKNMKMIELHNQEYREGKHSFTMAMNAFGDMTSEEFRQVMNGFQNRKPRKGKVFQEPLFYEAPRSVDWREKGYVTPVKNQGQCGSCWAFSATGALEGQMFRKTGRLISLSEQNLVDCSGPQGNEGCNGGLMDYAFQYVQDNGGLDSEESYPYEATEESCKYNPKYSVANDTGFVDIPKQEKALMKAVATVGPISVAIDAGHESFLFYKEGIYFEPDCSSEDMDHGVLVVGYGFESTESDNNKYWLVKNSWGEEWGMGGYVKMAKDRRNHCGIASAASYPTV
Sequence of Cathepsin B (P00787 whole entry): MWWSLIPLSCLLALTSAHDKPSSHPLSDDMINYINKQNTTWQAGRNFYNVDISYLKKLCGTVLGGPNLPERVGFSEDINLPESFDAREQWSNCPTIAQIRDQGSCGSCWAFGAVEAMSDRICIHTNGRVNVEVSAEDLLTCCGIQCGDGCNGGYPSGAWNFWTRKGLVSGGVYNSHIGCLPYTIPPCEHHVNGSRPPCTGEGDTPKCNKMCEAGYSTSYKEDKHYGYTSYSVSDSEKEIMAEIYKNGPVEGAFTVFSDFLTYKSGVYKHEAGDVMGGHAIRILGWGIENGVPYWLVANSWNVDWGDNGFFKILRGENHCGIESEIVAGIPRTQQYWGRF

SMILES: O=C(N[C@@H](Cc1ccccc1)C(=O)N[C@@H]1CNC1=O)OCc1ccccc1
IC50 (Procathepsin L): 37.4 µM
IC50 (Cathepsin B): 13.6 µM
IC50 (Neutrophil elastase): > 50 µM
IC50 (Cathepsin K): > 5 µM
IC50 (Cathepsin S): > 5 µM

SMILES: O=C(N[C@@H](Cc1ccccc1)C(=O)N[C@H]1CNC1=O)OCc1ccccc1
IC50 (Cathepsin B): 2.7 µM
IC50 (Neutrophil elastase): > 50 µM

SMILES: O=C(N[C@@H](Cc1ccccc1)C(=O)N[C@@H]1C(=O)N[C@H]1Oc1ccccc1)OCc1ccccc1
IC50 (Cathepsin B): 10.9 µM
IC50 (Neutrophil elastase): > 30 µM
IC50 (Cathepsin K): 0.1 µM
IC50 (Cathepsin S): 0.33 µM

SMILES: O=C(N[C@@H](Cc1ccccc1)C(=O)N[C@@H]1C(=O)N[C@H]1OCc1ccccc1)OCc1ccccc1
IC50 (Procathepsin L): 3.96 µM
IC50 (Cathepsin B): 32.6 µM
IC50 (Neutrophil elastase): > 50 µM
IC50 (Cathepsin K): 2.5 µM
IC50 (Cathepsin S): > 2.5 µM

SMILES: O=C(N[C@@H](Cc1ccccc1)C(=O)N[C@@H]1C(=O)N[C@H]1OC(=O)c1ccccc1)OCc1ccccc1
IC50 (Procathepsin L): 0.166 µM
IC50 (Cathepsin B): 27.5 µM
IC50 (Neutrophil elastase): > 50 µM
IC50 (Cathepsin K): 0.1 µM
IC50 (Cathepsin S): 0.02 µM

SMILES: O=C(N[C@@H](Cc1ccccc1)C(=O)N[C@@H]1C(=O)N[C@H]1S(=O)(=O)c1ccccc1)OCc1ccccc1
IC50 (Procathepsin L): 0.0001 µM
IC50 (Neutrophil elastase): > 50 µM
IC50 (Cathepsin K): 0.0065 µM
IC50 (Cathepsin S): 0.048 µM

SMILES: O=C(CCc1ccccc1)O[C@@H]1NC(=O)[C@H]1NC(=O)[C@H](Cc1ccccc1)NC(=O)OCc1ccccc1
IC50 (Procathepsin L): 0.047 µM
IC50 (Cathepsin B): 9.71 µM
IC50 (Neutrophil elastase): > 50 µM
IC50 (Cathepsin K): 0.038 µM
IC50 (Cathepsin S): 0.041 µM

SMILES: O=C(N[C@@H](Cc1ccccc1)C(=O)N[C@@H]1C(=O)N[C@@H]1Oc1ccccc1)OCc1ccccc1
IC50 (Cathepsin B): 0.43 µM
IC50 (Neutrophil elastase): > 30 µM
IC50 (Cathepsin K): 0.016 µM

SMILES: CC(C)(C)O[C@@H]1NC(=O)[C@H]1NC(=O)[C@H](Cc1ccccc1)NC(=O)OCc1ccccc1
IC50 (Procathepsin L): 0.78 µM
IC50 (Cathepsin B): 11.4 µM
IC50 (Neutrophil elastase): > 50 µM
IC50 (Cathepsin K): 2.5 µM
IC50 (Cathepsin S): > 2.5 µM

SMILES: O=C(N[C@@H](Cc1ccccc1)C(=O)N[C@@H]1C(=O)N[C@@H]1Sc1ccccc1)OCc1ccccc1
IC50 (Procathepsin L): 0.015 µM
IC50 (Cathepsin B): 39.7 µM
IC50 (Neutrophil elastase): > 50 µM
IC50 (Cathepsin K): 0.072 µM
IC50 (Cathepsin S): 2.5 µM

Other lines, results leading:

IC50 (Procathepsin L): 0.163 µM
IC50 (Cathepsin B): 7.01 µM
IC50 (Neutrophil elastase): > 50 µM
IC50 (Cathepsin K): 0.1 µM
IC50 (Cathepsin S): 0.355 µM
SMILES: CCCCO[C@@H]1NC(=O)[C@H]1NC(=O)[C@H](Cc1ccccc1)NC(=O)OCc1ccccc1

IC50 (Procathepsin L): 0.091 µM
IC50 (Cathepsin B): 6.46 µM
IC50 (Neutrophil elastase): > 50 µM
IC50 (Cathepsin K): 2.3 µM
IC50 (Cathepsin S): > 2.5 µM
SMILES: CC(C)CO[C@@H]1NC(=O)[C@H]1NC(=O)[C@H](Cc1ccccc1)NC(=O)OCc1ccccc1

IC50 (Procathepsin L): 0.0001 µM
IC50 (Cathepsin B): 10.5 µM
IC50 (Neutrophil elastase): > 50 µM
IC50 (Cathepsin K): 0.0084 µM
IC50 (Cathepsin S): 0.33 µM
SMILES: O=C(N[C@@H](Cc1ccccc1)C(=O)N[C@@H]1C(=O)N[C@H]1Sc1ccccc1)OCc1ccccc1

IC50 (Procathepsin L): 0.042 µM
IC50 (Cathepsin B): 0.47 µM
IC50 (Neutrophil elastase): > 10 µM
IC50 (Cathepsin K): 0.1 µM
IC50 (Cathepsin S): 0.207 µM
SMILES: CC(=O)O[C@@H]1NC(=O)[C@H]1NC(=O)[C@H](Cc1ccccc1)NC(=O)OCc1ccccc1
